# Test results taken from US11028079B2 (ConverGene LLC, priority 2015, dated 2021).
# Target: T1, BRD4 bromodomains (Homo sapiens, UniProt O60885)
# T1 construct: fused on or other part: T7 phage capsid protein (phage-display fusion; the phage DNA is read out by qPCR)
# Test: BROMOscan bromodomain competition binding assay (DiscoveRx)
# Conditions: Kd from 11 compound concentrations ranging from 0 to 10 μM, read-out: BROMOscan Relative Activity
# In short: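 Compounds in 0.1% DMSO/0.9% MEG competed with a solid-phase acetylated peptide for T7 phage-fused BRD4 bromodomains, with the retained bromodomain measured by qPCR.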
row,Structure (SMILES),Kd
1,"Cc1ccc(CNc2nc(N3CCN(CCN(C)C)CC3)nc3ccc(-c4c(C)noc4C)cc23)s1 [Example 88, 2-(4-(2-(dimethylamino)ethyl)piperazin-1-yl)-6-(3,5-dimethylisoxazol-4-yl)-N-((5-methylthiophen-2-yl)methyl)quinazolin-4-amine]",< 500 nM
2,"Cc1noc(C)c1-c1ccc2nc(N3CCN(CCN(C)C)CC3)nc(NC(C)c3cccs3)c2c1 (stereo not drawn) [Example 89, 2-(4-(2-(dimethylamino)ethyl)piperazin-1-yl)-6-(3,5-dimethylisoxazol-4-yl)-N-(1-(thiophen-2-yl)ethyl)quinazolin-4-amine]",< 500 nM
3,"Cc1noc(C)c1-c1ccc2nc(N3CCN(CCN(C)C)CC3)nc(NC(C)c3cccc(Cl)c3)c2c1 (stereo not drawn) [Example 90, N-(1-(3-chlorophenyl)ethyl)-2-(4-(2-(dimethylamino)ethyl)piperazin-1-yl)-6-(3,5-dimethylisoxazol-4-yl)quinazolin-4-amine]",< 500 nM
4,"Cc1cc(-c2ccc3nc(N4CCN(CCN(C)C)CC4)nc(NCc4cccc(Cl)c4)c3c2)cnc1O [Example 91, 5-(4-((3-chlorobenzyl)amino)-2-(4-(2-(dimethylamino)ethyl)piperazin-1-yl)quinazolin-6-yl)-3-methylpyridin-2-ol]",< 500 nM
5,"Cc1noc(C)c1-c1ccc2nc(N3CCN(CCN(C)C)CC3)nc(NCc3ccccc3)c2c1 [Example 92, N-benzyl-2-(4-(2-(dimethylamino)ethyl)piperazin-1-yl)-6-(3,5-dimethylisoxazol-4-yl)quinazolin-4-amine]",< 500 nM
6,"Cc1nocc1-c1ccc2nc(N3CCN(CCN(C)C)CC3)nc(NCc3cccc(Cl)c3)c2c1 [Example 93, N-(3-chlorobenzyl)-2-(4-(2-(dimethylamino)ethyl)piperazin-1-yl)-6-(3-methylisoxazol-4-yl)quinazolin-4-amine]",< 500 nM
7,"Cc1noc(C)c1-c1ccc2nc(N3CCN(CCN(C)C)CC3)nc(NCc3ccc(Cl)s3)c2c1 [Example 94, N-((5-chlorothiophen-2-yl)methyl)-2-(4-(2-(dimethylamino)ethyl)piperazin-1-yl)-6-(3,5-dimethylisoxazol-4-yl)quinazolin-4-amine]",< 500 nM
8,"Cc1noc(C)c1-c1ccc2nc(N3CCN(CCN(C)C)CC3)nc(NCc3ccc(Cl)cc3)c2c1 [Example 95, N-(4-chlorobenzyl)-2-(4-(2-(dimethylamino)ethyl)piperazin-1-yl)-6-(3,5-dimethylisoxazol-4-yl)quinazolin-4-amine]",500 to 5000 nM
9,"CN(C)CCN1CCN(c2nc(NCc3cccc(Cl)c3)c3cc(-c4ccnc(O)c4)ccc3n2)CC1 [Example 96, 4-(4-((3-chlorobenzyl)amino)-2-(4-(2-(dimethylamino)ethyl)piperazin-1-yl)quinazolin-6-yl)pyridin-2-ol]",> 5000 nM
10,"Cc1noc(C)c1-c1ccc2nc(-c3cnn(CC(=O)N(C)C)c3)nc(NCc3cccc(Cl)c3)c2c1 [Example 98, 2-(4-(4-((3-chlorobenzyl)amino)-6-(3,5-dimethylisoxazol-4-yl)quinazolin-2-yl)-1H-pyrazol-1-yl)-N,N-dimethylacetamide]",< 500 nM
11,"Cc1noc(C)c1-c1ccc2nc(N3CCN(CCN(C)C)CC3)nc(NCc3ccc(F)cc3)c2c1 [Example 99, 2-(4-(2-(dimethylamino)ethyl)piperazin-1-yl)-6-(3,5-dimethylisoxazol-4-yl)-N-(4-fluorobenzyl)quinazolin-4-amine]",500 to 5000 nM
12,"Cn1cc(-c2ccc3nc(Cl)nc(NCc4cccc(Cl)c4)c3c2)ccc1=O [Example 100, 5-(2-chloro-4-((3-chlorobenzyl)amino)quinazolin-6-yl)-1-methylpyridin-2(1H)-one]",> 5000 nM
13,"Cn1cc(-c2ccc3nc(-c4cnn(CC(N)=O)c4)nc(NCc4cccc(Cl)c4)c3c2)ccc1=O [Example 101, 2-(4-(4-((3-chlorobenzyl)amino)-6-(1-methyl-6-oxo-1,6-dihydropyridin-3-yl)quinazolin-2-yl)-1H-pyrazol-1-yl)acetamide]",< 500 nM
14,"CNC(=O)Cn1cc(-c2nc(NCc3cccc(Cl)c3)c3cc(-c4ccc(=O)n(C)c4)ccc3n2)cn1 [Example 102, 2-(4-(4-((3-chlorobenzyl)amino)-6-(1-methyl-6-oxo-1,6-dihydropyridin-3-yl)quinazolin-2-yl)-1H-pyrazol-1-yl)-N-methylacetamide]",< 500 nM
15,"Cn1cc(-c2ccc3nc(-c4cnn(CC(C)(C)O)c4)nc(NCc4cccc(Cl)c4)c3c2)ccc1=O [Example 103, 5-(4-((3-chlorobenzyl)amino)-2-(1-(2-hydroxy-2-methylpropyl)-1H-pyrazol-4-yl)quinazolin-6-yl)-1-methylpyridin-2(1H)-one]",< 500 nM
16,"Cn1cc(-c2ccc3nc(-c4cnn(CCC#N)c4)nc(NCc4cccc(Cl)c4)c3c2)ccc1=O [Example 104, 3-(4-(4-((3-chlorobenzyl)amino)-6-(1-methyl-6-oxo-1,6-dihydropyridin-3-yl)quinazolin-2-yl)-1H-pyrazol-1-yl)propanenitrile]",< 500 nM
17,"Cn1cc(-c2ccc3nc(-c4cnn(C(C)(C)CO)c4)nc(NCc4cccc(Cl)c4)c3c2)ccc1=O [Example 105, 5-(4-((3-chlorobenzyl)amino)-2-(1-(1-hydroxy-2-methylpropan-2-yl)-1H-pyrazol-4-yl)quinazolin-6-yl)-1-methylpyridin-2(1H)-one]",< 500 nM
18,"Cn1cc(-c2ccc3nc(N4CCN(C(=O)CO)CC4)nc(NCc4cccc(Cl)c4)c3c2)ccc1=O [Example 106, 5-(4-((3-chlorobenzyl)amino)-2-(4-(2-hydroxyacetyl)piperazin-1-yl)quinazolin-6-yl)-1-methylpyridin-2(1H)-one]",< 500 nM
19,"Cn1cc(-c2ccc3nc(N4CCN(C(=O)CN)CC4)nc(NCc4cccc(Cl)c4)c3c2)ccc1=O [Example 107, 5-(2-(4-(2-aminoacetyl)piperazin-1-yl)-4-((3-chlorobenzyl)amino)quinazolin-6-yl)-1-methylpyridin-2(1H)-one]",< 500 nM
20,"Cn1cc(-c2ccc3nc(N4CCN(CC(N)=O)CC4)nc(NCc4cccc(Cl)c4)c3c2)ccc1=O [Example 108, 2-(4-(4-((3-chlorobenzyl)amino)-6-(1-methyl-6-oxo-1,6-dihydropyridin-3-yl)quinazolin-2-yl)piperazin-1-yl)acetamide]",< 500 nM
21,"CNC(=O)CN1CCN(c2nc(NCc3cccc(Cl)c3)c3cc(-c4ccc(=O)n(C)c4)ccc3n2)CC1 [Example 109, 2-(4-(4-((3-chlorobenzyl)amino)-6-(1-methyl-6-oxo-1,6-dihydropyridin-3-yl)quinazolin-2-yl)piperazin-1-yl)-N-methylacetamide]",< 500 nM
22,"CN(C)C(=O)CN1CCN(c2nc(NCc3cccc(Cl)c3)c3cc(-c4ccc(=O)n(C)c4)ccc3n2)CC1 [Example 110, 2-(4-(4-((3-chlorobenzyl)amino)-6-(1-methyl-6-oxo-1,6-dihydropyridin-3-yl)quinazolin-2-yl)piperazin-1-yl)-N,N-dimethylacetamide]",< 500 nM
23,"C[C@H](O)CN1CCN(c2nc(NCc3cccc(Cl)c3)c3cc(-c4ccc(=O)n(C)c4)ccc3n2)CC1 [Example 111, (S)-5-(4-((3-chlorobenzyl)amino)-2-(4-(2-hydroxypropyl)piperazin-1-yl)quinazolin-6-yl)-1-methylpyridin-2(1H)-one]",< 500 nM
24,"Cc1noc(C)c1-c1ccc2nc(Cl)nc(NCc3cncc(Cl)c3)c2c1 [Example 112, 2-chloro-N-((5-chloropyridin-3-yl)methyl)-6-(3,5-dimethylisoxazol-4-yl)quinazolin-4-amine]",500 to 5000 nM
